Reference: the supplement of paper PMC10307832

Legend:
Assay in all cases: relative viability (nuclei count vs DMSO), 5 days (fraction); higher = more cells survive
Bexarotene + Lapatinib = compound: C=C(c1ccc(C(=O)O)cc1)c1cc2c(cc1C)C(C)(C)CCC2(C)C [Bexarotene] + CS(=O)(=O)CCNCc1ccc(-c2ccc3ncnc(Nc4ccc(OCc5cccc(F)c5)c(Cl)c4)c3c2)o1 [Lapatinib] (partner 2 µM)
How it was run: (§1)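 The day after seeding in 1536-well plates, lung cancer cell lines were treated by pin tool with a single drug, or with a fixed anchor-drug dose together with five library-drug doses (not always all listed) in √10 steps. After 5 days, a combined fix-and-stain solution (final 0.05% Triton X-100, 1% formaldehyde, 1 ug/ml Hoechst) was added. Nuclei counted on 4× images gave relative viability as treated counts over vehicle counts, reported as the median of duplicate plates.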

Bexarotene + Luminespib = compound: C=C(c1ccc(C(=O)O)cc1)c1cc2c(cc1C)C(C)(C)CCC2(C)C [Bexarotene] + CCNC(=O)c1noc(-c2cc(C(C)C)c(O)cc2O)c1-c1ccc(CN2CCOCC2)cc1 [Luminespib] (partner 0.01 µM)
How it was run: as §1

Bexarotene + Olaparib = compound: C=C(c1ccc(C(=O)O)cc1)c1cc2c(cc1C)C(C)(C)CCC2(C)C [Bexarotene] + O=C(c1cc(Cc2n[nH]c(=O)c3ccccc23)ccc1F)N1CCN(C(=O)C2CC2)CC1 [Olaparib] (partner 8 µM)
How it was run: as §1

Bexarotene + Decitabine = compound: C=C(c1ccc(C(=O)O)cc1)c1cc2c(cc1C)C(C)(C)CCC2(C)C [Bexarotene] + Nc1ncn([C@H]2C[C@H](O)[C@@H](CO)O2)c(=O)n1 [Decitabine] (partner 2 µM)
How it was run: as §1

Cell Line | relative viability (Bexarotene + Lapatinib; first compound 0.08 µM) | relative viability (Bexarotene + Lapatinib; first compound 0.253 µM) | relative viability (Bexarotene + Lapatinib; first compound 0.8 µM) | relative viability (Bexarotene + Lapatinib; first compound 2.53 µM) | relative viability (Bexarotene + Lapatinib; first compound 8 µM) | relative viability (Bexarotene + Luminespib; first compound 0.08 µM) | relative viability (Bexarotene + Luminespib; first compound 0.253 µM) | relative viability (Bexarotene + Luminespib; first compound 0.8 µM) | relative viability (Bexarotene + Luminespib; first compound 2.53 µM) | relative viability (Bexarotene + Luminespib; first compound 8 µM) | relative viability (Bexarotene + Olaparib; first compound 0.08 µM) | relative viability (Bexarotene + Olaparib; first compound 0.253 µM) | relative viability (Bexarotene + Olaparib; first compound 0.8 µM) | relative viability (Bexarotene + Olaparib; first compound 2.53 µM) | relative viability (Bexarotene + Olaparib; first compound 8 µM) | relative viability (Bexarotene + Decitabine; first compound 0.08 µM) | relative viability (Bexarotene + Decitabine; first compound 0.253 µM) | relative viability (Bexarotene + Decitabine; first compound 0.8 µM) | relative viability (Bexarotene + Decitabine; first compound 2.53 µM) | relative viability (Bexarotene + Decitabine; first compound 8 µM)
UMC-11 | 0.943 | 0.907 | 0.894 | 0.803 | 0.916 | 1.04 | 0.983 | 0.866 | 0.911 | 0.969 | 0.387 | 0.425 | 0.525 | 0.353 | 0.37 | 0.605 | 0.589 | 0.604 | 0.634 | 0.539
LC-2-ad | 0.993 | 1.09 | 1.07 | 0.994 | 0.997 | 1.01 | 0.978 | 1.04 | 1 | 1.1 | 0.711 | 0.693 | 0.663 | 0.541 | 0.661 | 0.805 | 0.85 | 0.853 | 0.772 | 0.813
SK-MES-1 | 0.512 | 0.45 | 0.565 | 0.558 | 0.509 | 0.923 | 0.989 | 0.803 | 0.742 | 0.64 | 0.798 | 0.832 | 0.696 | 0.628 | 0.564 | 0.43 | 0.379 | 0.423 | 0.294 | 0.3
A-427 | 1.03 | 0.997 | 0.929 | 0.997 | 1.04 | 1.05 | 0.94 | 0.999 | 1.1 | 0.948 | 0.716 | 0.781 | 0.654 | 0.743 | 0.728 | 0.57 | 0.461 | 0.435 | 0.477 | 0.533
NCI-H322M | 0.634 | 0.572 | 0.658 | 0.625 | 0.578 | 1.05 | 0.902 | 0.862 | 0.982 | 0.812 | 0.771 | 0.826 | 0.788 | 0.834 | 0.871 | 0.68 | 0.748 | 0.655 | 0.678 | 0.731
NCI-H1975 | 1.25 | 1.01 | 1 | 1.1 | 0.988 | 0.171 | 0.159 | 0.201 | 0.154 | 0.215 | 1.03 | 0.906 | 0.783 | 0.851 | 0.836 | 0.359 | 0.393 | 0.443 | 0.406 | 0.392
NCI-H1437 | 0.975 | 0.893 | 0.759 | 0.9 | 0.778 | 1.05 | 1.07 | 1.15 | 1.07 | 1.1 | 0.613 | 0.638 | 0.599 | 0.623 | 0.597 | 0.592 | 0.581 | 0.556 | 0.564 | 0.51
NCI-H2009 | 0.794 | 1.14 | 1.06 | 1.06 | 0.999 | 1.19 | 1.18 | 1.12 | 1.2 | 1.02 | 0.772 | 0.697 | 0.727 | 0.664 | 0.663 | 0.404 | 0.394 | 0.373 | 0.404 | 0.364
